Patent US9642874B2, “Compositions of selenoorganic compounds and methods of use thereof” (Alltech, Inc., priority 2014, dated 2017)

System: Foxo1
Assay: Western blot of pFoxo1T24 in primary mouse hepatocytes
Format: cell-based
Details: 100 nM insulin 6 hours, or Compounds CDE both doses 24 hours + 6 hours
Experimental: The overnight-acclimated hepatocytes were washed twice with PBS (to remove any residual FBS and other additives in the TRL hepatocyte maintenance medium, pretreated with control (water) or selenium Compounds CDE (150 or 300 ppb of each selenium compound) in DMEM/F12 media supplemented with 10% fetal bovine serum (FBS) for 24 hr. These cells were then washed twice with PBS and incubated with the same dose of selenium Compounds CDE (150 or 300 ppb) in the presence or absence of insulin (10 or 100 nM, Sigma), 0.1 mM 8-CPT (Sigma) or 0.5 μM Dex (Sigma) in serum-free and glucose-free DMEM media (Invitrogen) supplemented with 20 mM lactose (Sigma) and 2 mM pyruvate (Sigma) and 15 mM HEPES (Sigma) for another 6 hours. […]
After the above described treatments, primary mouse hepatocytes were rinsed with ice-cold PBS and lysed in the ice-cold RIPA buffer containing complete proteinase and phosphatase inhibitors (Thermo-Fisher Scientific, Waltham, Mass.) on ice for 30 min Cell lysates were collected using a cell scraper and transfer pipette and then centrifuged at 12000×g for 30 min at 4° C. to remove the DNA pellet and obtain the protein extract. Protein levels in the supernatant of these cell lysates were determined using the Pierce Micro-BCA protein assay kit (Thermo Scientific-Piece Biotechnology, Rockford, Ill.) according to the manufacturer's protocol. […]

insulin: insulin (10 or 100 nM, Sigma) used as comparator and cotreatment
pFoxo1T24 protein level (in words): significant increase
